The numbers were not newly measured in patent publication US20100035919A1, “COMPOUNDS USEFUL AS INHIBITORS OF PROTEIN KINASES” (ABBOTT LABORATORIES, priority 2008, published 2010), which cites them from elsewhere.

The structures appear in SMILES notation.

Series [1] has as its system rat. The conditions noted are these: experimental myocardial infarction (MI); rat model of chronic hypertension induced congestive heart failure.
In series [2] the test system is Zucker obese rats. As to conditions: 4 weeks.
The test system of series [3] is vein grafts. As to conditions: weeks following the procedure.
Series [4] concerns OLETF rats. As to conditions: high dose.

In the case of `C[C@@H](N)[C@H]1CC[C@H](C(=O)Nc2ccncc2)CC1` [Example Y-27632, Y-27632], in series [1], the “effect on ischemia-reperfusion injury, myocardial infarct size and myocardial fibrosis” value was “decrease ischemia-reperfusion injury, myocardial infarct size, and myocardial fibrosis”.

Regarding `O=S(=O)(c1cccc2cnccc12)N1CCCNCC1` [fasudil], the “blood pressure, glucose and lipid metabolism, insulin signalling, endothelial dysfunction” value in series [2] was “reduced blood pressure, corrected glucose and lipid metabolism, improved insulin signalling and endothelial dysfunction”. Besides, the “effect on ischemia-reperfusion injury, myocardial infarct size and myocardial fibrosis” value in series [1] was “decrease ischemia-reperfusion injury, myocardial infarct size, and myocardial fibrosis”. In addition, the cerebral blood flow entry (in vivo) was “increased cerebral blood flow”. For the same compound, under “under CNS ischemic conditions”, the neuroprotection entry was “neuroprotective”. In addition, in series [3], the VSMC apoptosis result is given as “enhanced”; the “intimal thickening and vascular smooth muscle cell (VSMC) proliferation” value was “significantly suppressed”. For the same compound, in series [4], the “development of diabetes, obesity, and dyslipidemia” value is “completely suppressed”; the serum adiponectin levels result was “increased”.
